From ChEMBL document CHEMBL2321853, “Novel acylethanolamide derivatives that modulate body weight through enhancement of hypothalamic pro-opiomelanocortin (POMC) and/or decreased neuropeptide Y (NPY)” (J Med Chem, 2013)

Legend:
Mus musculus [1] = test: Antiobesity activity in C57BL/6 mouse assessed as weight loss at 5 mg/kg, ip administered on day 1, 4, 5, 7, 17, 15, 19 measured on day 19 relative to control; format: functional; conditions: route intraperitoneal
Mus musculus [2] = test: Antiobesity activity in Sabra mouse assessed as change in body weight at 1 mg/kg, ip administered on day 8, 9, 10, 11, 14, 18, 24 and 32 measured on day 35 relative to control; format: functional; conditions: route intraperitoneal
Mus musculus [3] = test: Toxicity in Sabra mouse assessed as morphological changes in glial cells at 1 mg/kg, ip administered on day 8, 9, 10, 11, 14, 18, 24 and 32 by hematoxylin and eosin staining-based histopathological analysis; format: organism-based; parameters: dose 1 mg/kg, route intraperitoneal; conditions: in vivo
Hypothalamus = test: Effect on CAMKK2 gene expression in Sabra mouse hypothalamus assessed as change in mRNA level at 1 mg/kg, ip administered on day 8, 9, 10, 11, 14, 18, 24 and 32 by RT-PCR analysis relative to GAPDH; format: functional; conditions: route intraperitoneal
Mus musculus [4] = test: Antiobesity activity in Sabra mouse assessed as change in body weight at 1 mg/kg, ip administered on day 8, 12 and 43 measured on day 50 relative to control; format: functional; conditions: route intraperitoneal

With `CCCCCCCC/C=C\CCCCCCCC(=O)N[C@H](CO)C(C)C` the Activity (Mus musculus [1]) was 2.1%, the Activity (Mus musculus [2]) was -6.2% and the Activity (Mus musculus [3]) was “Non-toxic”. For the same molecule, the Activity (Hypothalamus) was -18% and the Activity (Mus musculus [4]) was -6%.
